16 compounds from US10927105B1 (Lundbeck La Jolla Research Center, Inc., priority 2017, dated 2021) can be followed below.

Some results are limits rather than exact numbers.

The target in test [1] is T1, MAGL (Mus musculus (Mouse), UniProt O35678). Description: Mouse brain proteomes from inhibitor treated mice (oral gavage, sacrificed 4 h after administration, brain proteomes analyzed). In kind it is in vivo. The conditions noted are these: 5 mg/kg oral gavage.
For test [2], the target named is MAGL (Homo sapiens (Human), UniProt Q99685). Description: In vitro competitive activity-based protein profiling (human prefrontal cortex membrane fractions, FP-Rh probe), MAGL band. The conditions noted are these: for MAGL % inh. 1 μM (human) / IC50: human prefrontal cortex membrane fractions; for IC50: read-out: MAGL IC50 (μM) (human).
For test [3], the target named is T2, FAAH (Mus musculus (Mouse), UniProt O08914). Description: Mouse brain proteomes from inhibitor treated mice (oral gavage, sacrificed 4 h after administration), FAAH. In kind it is in vivo. The conditions noted are these: 5 mg/kg oral gavage.
Test [4] has as its target T1, MAGL. Nature of the test: In vitro competitive activity-based protein profiling (mouse brain membrane fraction, FP-Rh probe), MAGL band.
Description: (§1) Biological Evaluation In Vitro Competitive Activity-Based Protein Profiling.
(§2) Proteomes (mouse brain membrane fraction for mouse assays; human prefrontal cortex membrane fractions for human assays) (50 mL, 1.0 mg/mL total protein concentration) were preincubated with varying concentrations of inhibitors at 37° C. After 30 min, FP-Rh (1.0 mL, 50 mM in DMSO) was added and the mixture was incubated for another 30 min at 37° C. Reactions were quenched with SDS loading buffer (15 μL-4×) and run on SDS-PAGE.
Test [5] has as its target T2, FAAH. Nature of the test: In vitro competitive activity-based protein profiling (mouse brain membrane fraction, FP-Rh probe), FAAH band.
Description: as §1, §2
Test [6] concerns the target FAAH (Homo sapiens (Human), UniProt O00519). Nature of the test: In vitro competitive activity-based protein profiling (human prefrontal cortex membrane fractions, FP-Rh probe), FAAH band. The conditions noted are these: for FAAH % inh. 1 μM (human) / IC50: human prefrontal cortex membrane fractions; for IC50: read-out: FAAH IC50 (μM) (human).
Description: as §1, §2
The target in test [7] is T2, FAAH. Nature of the test: Mouse brain proteomes from inhibitor treated mice (oral gavage, sacrificed 4 h after administration, brain proteomes analyzed), FAAH. In kind it is in vivo. As to conditions: 5 mg/kg oral gavage, read-out: FAAH % inh. 5 mg/kg (mouse).

T2 sequence (O08914 whole entry): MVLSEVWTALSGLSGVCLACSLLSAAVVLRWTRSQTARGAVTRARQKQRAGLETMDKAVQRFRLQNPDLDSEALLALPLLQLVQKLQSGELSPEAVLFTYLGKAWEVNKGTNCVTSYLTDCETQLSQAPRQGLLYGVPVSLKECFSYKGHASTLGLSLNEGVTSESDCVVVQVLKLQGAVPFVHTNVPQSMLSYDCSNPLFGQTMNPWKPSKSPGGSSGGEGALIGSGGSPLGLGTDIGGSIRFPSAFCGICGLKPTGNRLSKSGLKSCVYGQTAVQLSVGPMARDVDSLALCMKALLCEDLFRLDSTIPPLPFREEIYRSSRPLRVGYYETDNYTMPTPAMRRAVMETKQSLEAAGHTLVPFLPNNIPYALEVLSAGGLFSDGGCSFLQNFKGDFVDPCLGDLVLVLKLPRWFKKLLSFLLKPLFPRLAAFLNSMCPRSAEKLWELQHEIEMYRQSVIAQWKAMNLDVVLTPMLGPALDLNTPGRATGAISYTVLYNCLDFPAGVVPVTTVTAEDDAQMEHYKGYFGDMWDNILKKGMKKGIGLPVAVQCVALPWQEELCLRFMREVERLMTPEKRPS
T1 sequence (O35678 whole entry): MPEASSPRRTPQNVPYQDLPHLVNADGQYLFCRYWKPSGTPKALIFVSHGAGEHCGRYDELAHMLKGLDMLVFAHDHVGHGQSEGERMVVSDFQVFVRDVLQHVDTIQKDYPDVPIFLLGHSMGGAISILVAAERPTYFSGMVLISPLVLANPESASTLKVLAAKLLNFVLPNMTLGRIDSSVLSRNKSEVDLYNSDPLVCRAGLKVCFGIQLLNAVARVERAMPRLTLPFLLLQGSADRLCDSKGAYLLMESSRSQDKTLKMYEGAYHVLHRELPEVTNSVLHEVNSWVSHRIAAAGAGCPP
Chain of FAAH (Homo sapiens (Human), UniProt O00519) (O00519 whole entry): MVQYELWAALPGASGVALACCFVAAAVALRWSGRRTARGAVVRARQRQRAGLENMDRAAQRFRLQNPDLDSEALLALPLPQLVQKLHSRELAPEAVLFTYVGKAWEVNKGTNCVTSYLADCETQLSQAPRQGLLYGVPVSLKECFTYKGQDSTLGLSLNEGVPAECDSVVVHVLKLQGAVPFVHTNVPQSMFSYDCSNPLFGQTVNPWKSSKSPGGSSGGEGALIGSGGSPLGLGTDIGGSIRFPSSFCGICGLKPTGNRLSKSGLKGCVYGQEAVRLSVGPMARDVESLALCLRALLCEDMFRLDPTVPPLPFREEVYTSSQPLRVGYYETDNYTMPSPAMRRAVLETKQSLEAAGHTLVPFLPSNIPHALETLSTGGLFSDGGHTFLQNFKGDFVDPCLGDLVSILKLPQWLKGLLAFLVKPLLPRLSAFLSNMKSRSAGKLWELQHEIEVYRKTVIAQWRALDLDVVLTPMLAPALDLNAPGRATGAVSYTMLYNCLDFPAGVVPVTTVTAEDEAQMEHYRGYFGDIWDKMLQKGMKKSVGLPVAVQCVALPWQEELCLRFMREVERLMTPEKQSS
Chain of MAGL (Homo sapiens (Human), UniProt Q99685) (Q99685 whole entry): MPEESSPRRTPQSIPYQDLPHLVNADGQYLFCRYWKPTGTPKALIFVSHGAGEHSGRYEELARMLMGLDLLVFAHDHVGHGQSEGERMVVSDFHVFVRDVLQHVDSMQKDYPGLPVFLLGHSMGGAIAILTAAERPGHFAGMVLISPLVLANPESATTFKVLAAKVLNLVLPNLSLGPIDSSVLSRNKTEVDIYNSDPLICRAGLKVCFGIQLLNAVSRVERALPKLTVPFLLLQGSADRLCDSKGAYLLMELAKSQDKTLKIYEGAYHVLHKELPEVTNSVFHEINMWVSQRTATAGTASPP

With `O=C(O)c1ccn(C(=O)N2CCC3(CCCN3Cc3ccc(C(F)(F)F)cc3Cl)CC2)n1` [Example 76, 1-(1-(2-chloro-4-(trifluoromethyl)-benzyl)-1,8-diazaspiro[4.5]-decane-8-carbonyl)-1H-pyrazole-3-carboxylic acid], the “MAGL % inh. 5 mg/kg (mouse)” value on MAGL [1] is “D (% inhibition is greater than or equal to 0% and less than 25%)”. The “MAGL % inh. 1 μM (human)” value at MAGL [2] is “A (% inhibition is greater than or equal to 75%)”. At FAAH [3], the “FAAH % inh. 5 mg/kg (mouse)” value was “D (% inhibition is greater than or equal to 0% and less than 25%)”. The “MAGL % inh. 1 μM (mouse)” value on MAGL [4] was “A (% inhibition is greater than or equal to 75%)”. The “FAAH % inh. 1 μM (mouse)” value on FAAH [5] was “D (% inhibition is greater than or equal to 0% and less than 25%)”. The “FAAH % inh. 1 μM (human)” value at FAAH [6] is “D (% inhibition is greater than or equal to 0% and less than 25%)”.
In the case of `O=C(O)c1ccn(C(=O)N2CCC3(CCN(Cc4cc(F)cc(C(F)(F)F)c4)C3)CC2)n1` [Example 152, 1-(2-(3-fluoro-5-(trifluoromethyl)-benzyl)-2,8-diazaspiro[4.5]-decane-8-carbonyl)-1H-pyrazole-3-carboxylic acid], the “MAGL % inh. 1 μM (human)” value at MAGL [2] was “A (% inhibition is greater than or equal to 75%)”. In addition, the “MAGL % inh. 1 μM (mouse)” value at MAGL [4] is “A (% inhibition is greater than or equal to 75%)”. Further, the “FAAH % inh. 1 μM (mouse)” value at FAAH [5] is “B (% inhibition is greater than or equal to 50% and less than 75%)”. Moreover, the “FAAH % inh. 1 μM (human)” value at FAAH [6] is “D (% inhibition is greater than or equal to 0% and less than 25%)”.
For the compound `O=C(O)c1ccn(C(=O)N2CCC3(CCN(Cc4cccc(OC(F)(F)F)c4)C3)CC2)n1` [Example 153, 1-(2-(3-(trifluoromethoxy)-benzyl)-2,8-diazaspiro[4.5]-decane-8-carbonyl)-1H-pyrazole-3-carboxylic acid], the “MAGL % inh. 1 μM (human)” value on MAGL [2] was “A (% inhibition is greater than or equal to 75%)”. The “MAGL % inh. 1 μM (mouse)” value at MAGL [4] is given as “A (% inhibition is greater than or equal to 75%)”. For the same compound, at FAAH [5], the “FAAH % inh. 1 μM (mouse)” value is “C (% inhibition is greater than or equal to 25% and less than 50%)”. The “FAAH % inh. 1 μM (human)” value at FAAH [6] was “D (% inhibition is greater than or equal to 0% and less than 25%)”.
Take `CN(Cc1cccc(C(F)(F)F)c1)C1CCN(C(=O)n2ccc(C(N)=O)n2)CC1` [Example 176, 1-(4-(methyl(3-(trifluoromethyl)-benzyl)amino)-piperidine-1-carbonyl)-1H-pyrazole-3-carboxamide]: the IC50 at MAGL [2] and on FAAH [6] was under 0.1 µM each time.
Turning to `NC(=O)c1ccn(C(=O)N2CCC3(CCN(Cc4ccc(N5CCCC5)cc4C(F)(F)F)C3)CC2)n1` [Example 195, 1-(2-(4-(pyrrolidin-1-yl)-2-(trifluoromethyl)-benzyl)-2,8-diazaspiro[4.5]-decane-8-carbonyl)-1H-pyrazole-3-carboxamide], the IC50 at MAGL [2] and on FAAH [6] was under 0.1 µM throughout.
Consider `NC(=O)c1ccn(C(=O)N2CCC3(CCN(Cc4cc(Cl)cc(C(F)(F)F)c4)C3)CC2)n1` [Example 196, 1-(2-(3-chloro-5-(trifluoromethyl)-benzyl)-2,8-diazaspiro[4.5]-decane-8-carbonyl)-1H-pyrazole-3-carboxamide], for which the IC50 at MAGL [2] and on FAAH [6] was under 0.1 µM throughout.
In the case of `NC(=O)c1ccn(C(=O)N2CCN(Cc3cccc(Oc4ccccc4)c3)CC2)n1` [Example 198, 1-(4-(3-phenoxybenzyl)-piperazine-1-carbonyl)-1H-pyrazole-3-carboxamide], the inhibition at 1 µM at MAGL [2] (read-out: MAGL % inh. 1 μM (human)) and on FAAH [6] (read-out: FAAH % inh. 1 μM (human)) was over 75% in each case.
As for `CN(Cc1ccccc1Cl)[C@H]1C[C@@H]2CN(C(=O)n3ccc(C(N)=O)n3)C[C@@H]2C1` [Example 200, 1-(trans-5-((2-chlorobenzyl)-(methyl)amino)-octahydrocyclopenta-[c]pyrrole-2-carbonyl)-1H-pyrazole-3-carboxamide], the IC50 on MAGL [2] and on FAAH [6] was under 0.1 µM in each case.
As for `NC(=O)c1ccn(C(=O)N2CC3CN(Cc4cc(Cl)cc(C(F)(F)F)c4)CC3C2)n1` (centres unmarked) [Example 201, 1-(5-(3-chloro-5-(trifluoromethyl)-benzyl)-octahydropyrrolo-[3,4-c]pyrrole-2-carbonyl)-1H-pyrazole-3-carboxamide], the IC50 on MAGL [2] and on FAAH [6] was under 0.1 µM each time.
As for `NC(=O)c1ccn(C(=O)N2CC3CN(Cc4cc(Cl)ccc4Cl)CC3C2)n1` (centres unmarked) [Example 202, 1-(5-(2,5-dichlorobenzyl)-octahydropyrrolo-[3,4-c]pyrrole-2-carbonyl)-1H-pyrazole-3-carboxamide], the concentration for half-maximal inhibition (IC50) at MAGL [2] and at FAAH [6] was under 0.1 µM each time.
For `CN(Cc1ccccc1C(F)(F)F)[C@@H]1C[C@@H]2CN(C(=O)n3ccc(C(N)=O)n3)C[C@@H]2C1` [Example 204, 1-(cis-5-(methyl(2-(trifluoromethyl)-benzyl)amino)-octahydrocyclopenta-[c]pyrrole-2-carbonyl)-1H-pyrazole-3-carboxamide], the half-inhibitory concentration (IC50) on MAGL [2] and at FAAH [6] was under 0.1 µM throughout.
In the case of `CN(Cc1ccc(C(F)(F)F)cc1)[C@@H]1C[C@@H]2CN(C(=O)n3ccc(C(N)=O)n3)C[C@@H]2C1` [Example 205, 1-(cis-5-(methyl(4-(trifluoromethyl)-benzyl)amino)-octahydrocyclopenta-[c]pyrrole-2-carbonyl)-1H-pyrazole-3-carboxamide], the half-inhibitory concentration (IC50) on MAGL [2] and on FAAH [6] was under 0.1 µM throughout.
For `CN(Cc1ccccc1Cl)[C@@H]1C[C@@H]2CN(C(=O)n3ccc(C(N)=O)n3)C[C@@H]2C1` [Example 206, 1-(cis-5-((2-chlorobenzyl)-(methyl)amino)-octahydrocyclopenta-[c]pyrrole-2-carbonyl)-1H-pyrazole-3-carboxamide], the half-inhibitory concentration (IC50) at MAGL [2] and at FAAH [6] was under 0.1 µM throughout.
For the compound `NC(=O)c1ccn(C(=O)N2CC3CN(Cc4cccc(C(F)(F)F)c4)CC3C2)n1` (centres unmarked) [Example 208, 1-(5-(3-(trifluoromethyl)-benzyl)-octahydropyrrolo-[3,4-c]pyrrole-2-carbonyl)-1H-pyrazole-3-carboxamide], the concentration for half-maximal inhibition (IC50) on MAGL [2] and on FAAH [6] was under 0.1 µM throughout.
In the case of `O=C(O)c1ccn(C(=O)N2CCC3(CCCN3C(=O)c3ccc(C(F)(F)F)cc3N3CCCC3)CC2)n1` [Example 403, 1-(1-(2-(pyrrolidin-1-yl)-4-(trifluoromethyl)-benzoyl)-1,8-diazaspiro[4.5]-decane-8-carbonyl)-1H-pyrazole-3-carboxylic acid], the inhibition at 5 mg/kg on FAAH [7] was 0 to 25%.
On the same count and under the same terms, with `O=C(O)c1ccn(C(=O)N2CCC3(CCCN3Cc3ccc(C(F)(F)F)cc3N3CCCCC3)CC2)n1` [Example 404, 1-(1-(2-(piperidin-1-yl)-4-(trifluoromethyl)-benzyl)-1,8-diazaspiro[4.5]-decane-8-carbonyl)-1H-pyrazole-3-carboxylic acid] the figure was 0 to 25%.

What is called IC50 is the concentration that gives 50% inhibition.
